From US20110230493A1, “1-OXA-8-Azaspiro [4,5] Decabe-8-Carboxamide Compounds as FAAH Inhibitors” (Pfizer Inc., priority 2008, published 2011)
Marks after values point to notes of the source that are not given here.

Experiments:
[1] = target: T1, human FAAH (Homo sapiens, UniProt O00519); assay: FAAH assay, human FAAH enzyme inactivation (kinact/Ki); assay type: biochemical; details: oleamide 50 μM, 30° C.; for kinact/KI: pH 7.4, in vitro, read-out: hFAAH kinact/Ki; for hFAAH kinact/Ki: in vitro, pH 7.4
T1 construct: made in house; host or cells: E. coli
T1 sequence (O00519 1-579): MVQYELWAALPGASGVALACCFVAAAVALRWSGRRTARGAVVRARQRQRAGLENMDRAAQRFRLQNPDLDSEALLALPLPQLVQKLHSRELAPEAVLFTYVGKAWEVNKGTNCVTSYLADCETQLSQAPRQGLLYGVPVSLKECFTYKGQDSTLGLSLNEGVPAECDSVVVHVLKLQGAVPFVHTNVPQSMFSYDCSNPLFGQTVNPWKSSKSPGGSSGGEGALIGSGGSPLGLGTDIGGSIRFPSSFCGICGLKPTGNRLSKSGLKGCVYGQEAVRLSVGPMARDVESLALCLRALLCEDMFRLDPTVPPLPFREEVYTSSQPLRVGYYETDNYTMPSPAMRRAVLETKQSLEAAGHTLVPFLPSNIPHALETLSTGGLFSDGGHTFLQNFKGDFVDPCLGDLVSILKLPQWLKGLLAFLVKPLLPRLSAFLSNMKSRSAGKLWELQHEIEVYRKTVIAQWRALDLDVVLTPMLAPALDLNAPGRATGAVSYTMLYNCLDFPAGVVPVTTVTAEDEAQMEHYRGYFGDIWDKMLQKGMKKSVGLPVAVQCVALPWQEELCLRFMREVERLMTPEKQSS
In short: (§1)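 Oleamide hydrolysis by 1-4 nM purified E. coli-expressed FAAH (substrate 50 μM = Km) coupled to GDH/NADH, pH 7.4 phosphate, 7.5% DMSO and EtOH, 30° C; A340 followed 90 min. kobs from mono-exponential fits; kinact/Ki from kobs-versus-concentration slope, multiplied by two.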

[2] = system: Male Sprague-Dawley Rats; assay: In vivo Complete Freund's Adjuvant (CFA) efficacy assay, inhibition of allodynia; parameters: species or system rat; key: (+) indicates the test compound was determined to be efficacious at 3 mpk, oral dosing; (−) indicates the test compound was determined to not be efficacious at 3 mpk, oral dosing; details: p < 0.05 vs vehicle group
In short: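 Adult male Sprague-Dawley rats weighing 200 g-250 g received an intra-plantar injection of 150 uL Complete Freund's Adjuvant into the left hindpaw to induce inflammation. On day 4 after injection, baseline paw withdrawal threshold was measured with Von Frey hairs using the Dixon Up and Down method. Threshold was measured again at four hours postdose. Treatment groups were compared by ANOVA with Dunnett's two-tailed test.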

[3] = target: T2, rat FAAH (Rattus norvegicus, UniProt P97612); assay: FAAH assay, rat FAAH enzyme inactivation (kinact/Ki); assay type: biochemical; details: oleamide 50 μM, 30° C.; for kinact/KI: pH 7.4, in vitro, read-out: rFAAH kinact/Ki; for rFAAH kinact/Ki: in vitro, pH 7.4
T2 construct: made in house; host or cells: E. coli
T2 sequence (P97612 1-579): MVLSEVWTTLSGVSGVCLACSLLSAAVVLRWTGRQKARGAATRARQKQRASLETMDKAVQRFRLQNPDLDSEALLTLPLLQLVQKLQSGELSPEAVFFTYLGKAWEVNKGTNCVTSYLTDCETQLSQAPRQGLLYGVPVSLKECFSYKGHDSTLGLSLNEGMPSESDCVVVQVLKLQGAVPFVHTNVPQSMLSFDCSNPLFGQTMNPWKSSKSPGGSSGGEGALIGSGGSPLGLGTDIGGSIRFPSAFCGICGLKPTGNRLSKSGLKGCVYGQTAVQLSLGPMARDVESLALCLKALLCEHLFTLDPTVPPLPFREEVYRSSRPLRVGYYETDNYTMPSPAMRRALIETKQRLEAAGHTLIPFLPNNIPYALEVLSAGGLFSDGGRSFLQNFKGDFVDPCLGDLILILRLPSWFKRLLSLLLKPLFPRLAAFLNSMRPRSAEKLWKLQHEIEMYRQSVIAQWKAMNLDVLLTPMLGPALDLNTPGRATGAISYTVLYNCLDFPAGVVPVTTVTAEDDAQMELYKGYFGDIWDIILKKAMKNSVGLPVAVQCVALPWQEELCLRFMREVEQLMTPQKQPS
In short: as §1

[4] = 3 mpk, oral dosing, PWT four hours postdose

Row | kinact/KI [1] | kinact/KI [3] | hFAAH kinact/Ki [1] | rFAAH kinact/Ki [3] | SMILES | CFA Efficacy [2, 4] | CFA Efficacy ([2]; 10 mpk, intraperitoneal dosing)
1 | – | – | 2150 M⁻¹ s⁻¹ | 1340 M⁻¹ s⁻¹ | Cc1noc(NC(=O)N2CCC3(CC2)CC(c2noc(-c4ccc(OC(F)(F)F)cc4)n2)CO3)c1C (single isomer, unassigned) [Example 73, N-(3,4-dimethylisoxazol-5-yl)-3-{5-[4-(trifluoromethoxy)phenyl]-1,2,4-oxadiazol-3-yl}-1-oxa-8-azaspiro[4.5]decane-8-carboxamide] | (+) | –
2 | 5590 M⁻¹ s⁻¹ | 5320 M⁻¹ s⁻¹ | – | – | Cc1noc(NC(=O)N2CCC3(CC2)C[C@@H](c2ccc(OCc4ccc(F)cc4)cc2)CO3)c1C [Example 42, (3S)—N-(3,4-dimethylisoxazol-5-yl)-3-{4-[(4-fluorobenzyl)oxy]phenyl}-1-oxa-8-azaspiro[4.5]decane-8-carboxamide] | (+) | –
3 | 1810 M⁻¹ s⁻¹ | – | – | 1510 M⁻¹ s⁻¹ | Cc1noc(NC(=O)N2CCC3(CC2)CC(c2cc(F)cc(Cl)c2)CO3)c1C (single isomer, unassigned) [Example 39, 3-(3-chloro-5-fluorophenyl)-N-(3,4-dimethylisoxazol-5-yl)-1-oxa-8-azaspiro[4.5]decane-8-carboxamide] | (+) | –
4 | 2920 M⁻¹ s⁻¹ | 2260 M⁻¹ s⁻¹ | – | – | Cc1noc(NC(=O)N2CCC3(CC2)C[C@@H](c2cccc(-c4ccc(Cl)cc4)c2)CO3)c1C [Example 62, (3S)-3-(4′-chlorobiphenyl-3-yl)-N-(3,4-dimethylisoxazol-5-yl)-1-oxa-8-azaspiro[4.5]decane-8-carboxamide] | (+) | –
5 | – | – | 3620 M⁻¹ s⁻¹ | 5870 M⁻¹ s⁻¹ | Cc1noc(NC(=O)N2CCC3(CC2)CC(c2ccc(OCc4ccccc4Cl)c(Cl)c2)CO3)c1C (single isomer, unassigned) [Example 43, 3-{3-chloro-4-[(2-chlorobenzyl)oxy]phenyl}-N-(3,4-dimethylisoxazol-5-yl)-1-oxa-8-azaspiro[4.5]decane-8-carboxamide] | (+) | –
6 | 4470 M⁻¹ s⁻¹ | 2540 M⁻¹ s⁻¹ | – | – | Cc1noc(NC(=O)N2CCC3(CC2)C[C@@H](c2ccc(OCc4cccc(F)c4)cc2)CO3)c1C [Example 48, (3S)—N-(3,4-dimethylisoxazol-5-yl)-3-{4-[(3-fluorobenzyl)oxy]phenyl}-1-oxa-8-azaspiro[4.5]decane-8-carboxamide] | (+) | –
7 | 16800 M⁻¹ s⁻¹ | 21900 M⁻¹ s⁻¹ | – | – | Cc1noc(NC(=O)N2CCC3(CC2)C[C@H](c2ccc(OCc4ccc(Cl)cc4)cc2)CO3)c1C [Example 49, (3R)-3-{4-[(4-chlorobenzyl)oxy]phenyl}-N-(3,4-dimethylisoxazol-5-yl)-1-oxa-8-azaspiro[4.5]decane-8-carboxamide] | (−) | –

The remaining lines, values behind:

Row | SMILES | kinact/KI [1] | kinact/KI [3] | hFAAH kinact/Ki [1] | rFAAH kinact/Ki [3] | CFA Efficacy [2, 4] | CFA Efficacy ([2]; 10 mpk, intraperitoneal dosing)
8 | Cn1nnnc1NC(=O)N1CCC2(CC1)CC(c1cccc(OC(F)(F)F)c1)CO2 (single isomer, unassigned) [Example 77, N-(1-methyl-1H-tetrazol-5-yl)-3-[3-(trifluoromethoxy)phenyl]-1-oxa-8-azaspiro[4.5]decane-8-carboxamide] | 7110 M⁻¹ s⁻¹ | 4560 M⁻¹ s⁻¹ | – | – | (+) | –
9 | O=C(Nc1cccnn1)N1CCC2(CC1)C[C@@H](c1cccc(Oc3ccc(C(F)(F)F)cn3)c1)CO2 [Example 2, (3S)—N-pyridazin-3-yl-3-(3-{[5-(trifluoromethyl)pyridin-2-yl]oxy}phenyl)-1-oxa-8-azaspiro[4.5]decane-8-carboxamide] | 1340 M⁻¹ s⁻¹ | 1130 M⁻¹ s⁻¹ | – | – | – | (−)^c
10 | Cn1nnnc1NC(=O)N1CCC2(CC1)C[C@H](c1cccc(-c3ccc(F)cc3)c1)CO2 [Example 96, (3R)-3-(4′-fluorobiphenyl-3-yl)-N-(1-methyl-1H-tetrazol-5-yl)-1-oxa-8-azaspiro[4.5]decane-8-carboxamide] | 26300 M⁻¹ s⁻¹ | 2010 M⁻¹ s⁻¹ | – | – | (+) | –
11 | Cn1nnnc1NC(=O)N1CCC2(CC1)C[C@H](c1cccc(-c3ccc(OC(F)(F)F)cc3)c1)CO2 [Example 97, (3R)—N-(1-methyl-1H-tetrazol-5-yl)-3-[4′-(trifluoromethoxy)biphenyl-3-yl]-1-oxa-8-azaspiro[4.5]decane-8-carboxamide] | 16900 M⁻¹ s⁻¹ | 1830 M⁻¹ s⁻¹ | – | – | (+) | –
12 | O=C(Nc1cccnn1)N1CCC2(CC1)C[C@@H](c1cccc(Oc3ccc(Cl)cn3)c1)CO2 [Example 12, (3S)-3-{3-[(5-chloropyridin-2-yl)oxy]phenyl}-N-pyridazin-3-yl-1-oxa-8-azaspiro[4.5]decane-8-carboxamide] | 2190 M⁻¹ s⁻¹ | 2270 M⁻¹ s⁻¹ | – | – | (+) | –
13 | Cn1nnnc1NC(=O)N1CCC2(CC1)CC(c1cccc(C(F)(F)F)c1)CO2 (single isomer, unassigned) [Example 93, N-(1-methyl-1H-tetrazol-5-yl)-3-[3-(trifluoromethyl)phenyl]-1-oxa-8-azaspiro[4.5]decane-8-carboxamide] | 4600 M⁻¹ s⁻¹ | 2160 M⁻¹ s⁻¹ | – | – | (+) | –
14 | Cn1nnnc1NC(=O)N1CCC2(CC1)C[C@H](c1cccc(-c3ccc(C(F)(F)F)cn3)c1)CO2 [Example 99, (3R)—N-(1-methyl-1H-tetrazol-5-yl)-3-{3-[5-(trifluoromethyl)pyridin-2-yl]phenyl}-1-oxa-8-azaspiro[4.5]decane-8-carboxamide] | 9970 M⁻¹ s⁻¹ | 2690 M⁻¹ s⁻¹ | – | – | (+) | –
15 | Cn1nnnc1NC(=O)N1CCC2(CC1)CC(c1noc(-c3ccc(C(F)(F)F)cc3)n1)CO2 (single isomer, unassigned) [Example 83, N-(1-methyl-1H-tetrazol-5-yl)-3-{5-[4-(trifluoromethyl)phenyl]-1,2,4-oxadiazol-3-yl}-1-oxa-8-azaspiro[4.5]decane-8-carboxamide] | – | – | 5480 M⁻¹ s⁻¹ | 974 M⁻¹ s⁻¹ | (+) | –
16 | Cn1nnnc1NC(=O)N1CCC2(CC1)CC(c1noc(-c3ccc(OC(F)(F)F)cc3)n1)CO2 (single isomer, unassigned) [Example 85, N-(1-methyl-1H-tetrazol-5-yl)-3-{5-[4-(trifluoromethoxy)phenyl]-1,2,4-oxadiazol-3-yl}-1-oxa-8-azaspiro[4.5]decane-8-carboxamide] | – | – | 5980 M⁻¹ s⁻¹ | 1340 M⁻¹ s⁻¹ | (+) | –
17 | Cn1nnnc1NC(=O)N1CCC2(CC1)C[C@@H](c1ccc(OCc3ccc(F)cc3)cc1)CO2 [Example 91, (3S)-3-{4-[(4-fluorobenzyl)oxy]phenyl}-N-(1-methyl-1H-tetrazol-5-yl)-1-oxa-8-azaspiro[4.5]decane-8-carboxamide] | 21200 M⁻¹ s⁻¹ | 7500 M⁻¹ s⁻¹ | – | – | (+) | –
